Data from patent US20250312412A1, “METHODS FOR TREATING DRY EYE DISEASE” (The Schepens Eye Research Institute, Inc., priority 2022, published 2025).
Residues, ends and D or L forms follow the SMILES beside them.

Key:
[1] = tested on: human corneal epithelial cells; assay: Co-culture of human corneal epithelial cells and Th17 cells, density and morphology by microscopy, Examples 2 and 3; type: cell-based; conditions: 0.1 μM, 1 μM, 10 μM and 100 μM; 24 hours
Method: A co-culture of human corneal epithelial cells and Th17 cells was prepared, to mimic the in vivo interaction between Th17 cells and cornea tissue in dry eye disease. The therapeutic efficacy of an IL-17 inhibitor to protect the human corneal epithelial cells from Th17-induced damage was tested. Immortalized human corneal epithelial cells were obtained. To acquire human Th17 cells, naïve CD4+ T cells were first purified from primary human peripheral blood mononuclear cells (StemCell) by negative selection using MACS separation, follow by in vitro polarization to Th17 cells using human Th17 cell differentiation kit (RnD Systems) in X-VIVO 15 medium (Lonza). Successful differentiation of human Th17 cells was confirmed by flow cytometry before co-culture. At about 80% confluence of human corneal epithelial cell culture, 1×10^5 Th17 cells were added, with and without an IL-17 inhibitor. After 24 hours of co-culture in the presence of the IL-17 inhibitor, the density and morphology of human corneal epithelial cells were observed under a bright-light inverted microscope equipped with a camera.
A co-culture of human corneal epithelial cells and Th17 cells was prepared, to mimic the in vivo interaction between Th17 cells and cornea tissue in dry eye disease. The therapeutic efficacy of an IL-17 inhibitor to protect the human corneal epithelial cells from Th17-induced damage was tested. […]

[2] = tested on: mice induced with dry eye disease; assay: Corneal fluorescein staining (CFS) score in mice with induced dry eye disease, Example 1; type: in vivo; conditions: topical to the eye, day 4 to day 12; antibody 1 wt % once or twice daily, lifitegrast 5 wt % twice daily, cyclosporine 0.05 wt % twice daily
Method: FIG. 1 is a graph of corneal fluorescein staining (CFS) scored using the National Eye Institute Industry Workshop Scale of 0-15, as a function of time, in days, in mice induced with dry eye disease by placing them in a controlled-environment chamber (relative humidity: <20%, dry airflow: 15 L/min, temperature: 21˜23° C.) for 14 days. Corneal epithelial disease was evaluated using corneal fluorescein staining (CFS) and scored using the National Eye Institute Industry Workshop Scale of 0-15, at day 0 (normal baseline), day 4 (before instillation of topical therapy), day 7, day 10, and […] in mice treated by topical application to the eye with an anti-IL-17A antibody once daily (closed circles) or twice daily (closed squares), lifitegrast (XIIDRA®) twice daily (inverted triangles), cyclosporine (RESTASIS®) twice daily (triangles), or saline twice daily (diamonds).
In a first study, described in Example 1, treatment of dry eye disease with an IL-17 cytokine inhibitor, lifitegrast ophthalmic solution (XIIDRA®), and cyclosporine ophthalmic emulsion (RESTASIS®) were compared. […] The test compounds were applied topically to the eye for 9 days (from day 4 to day 12), and disease severity was evaluated using corneal fluorescein staining (CFS) and scored using the National Eye Institute Industry Workshop Scale of 0-15 on days 4, 7, 10 and 12. […]

goblet cells = assay: Goblet cell count in conjunctival tissue sections of dry eye mice, Example 1; type: in vivo; conditions: conjunctiva, mice with dry eye disease treated twice daily
Method: With continued reference to the study of Example 1, ocular tissue was harvested from the mice and tissue sections were prepared for microscopy analysis. Cross-sections of the conjunctiva were stained and the images were inspected to quantify goblet cell density. Goblet cells within the conjunctival epithelium secrete mucins onto the surface of the eye. FIG. 3A is an image of conjunctiva from a healthy mouse with no dry eye disease, and the goblet cells are visible as the darkly stained, plump cells. FIGS. 3B-3E are images from the conjunctiva from a subject in the animals with dry eye disease and treated twice daily with saline as a control (FIG. 3B), cyclosporine ophthalmic emulsion (RESTASIS®; FIG. 3C), lifitegrast ophthalmic solution (XIIDRA®) (FIG. 3D), or anti-IL-17A antibody (FIG. 3E). The numbers of goblet cells were counted, and FIG. 3F is a bar graph of the percent of normal goblet cells for the normal (healthy) mice and mice with dry eye disease treated with saline, cyclosporine, lifitegrast or an IL-17A inhibitor. […] Subjects with dry eye disease and treated with cyclosporine or with lifitegrast had about 60% of the normal number of goblet cells. […]

SMILES | toxicity to human corneal epithelial cells [1] | effect on dry eye disease severity (disease score, CFS) [2] | goblet cells, percent of the normal number (goblet cells)
CC[C@H](C)[C@H](NC(=O)[C@H](Cc1c[nH]c2ccccc12)NC(=O)[C@H](CC(=O)O)NC(=O)[C@H](Cc1c[nH]c2ccccc12)NC(=O)[C@H](CC(C)C)NC(=O)[C@H](CC(=O)O)NC(=O)[C@H](C)NC(=O)[C@@H]1CCCN1C(=O)[C@@H](NC(=O)[C@@H](NC(=O)[C@@H](NC(=O)[C@H](Cc1c[nH]cn1)NC(=O)[C@@H](N)C(C)C)C(C)C)[C@@H](C)O)[C@@H](C)CC)C(=O)N[C@@H](CC(N)=O)C(=O)N[C@@H](CCCCN)C(=O)O [SEQ ID NO: 1, VHVTIPADLWDWINK] (H-VHVTIPADLWDWINK-OH) | not toxic to the human corneal epithelial cells |  | 
CS(=O)(=O)c1cccc(C[C@H](NC(=O)c2c(Cl)cc3c(c2Cl)CCN(C(=O)c2ccc4ccoc4c2)C3)C(=O)O)c1 [lifitegrast] |  | no improvement in reducing in disease severity for the first six days of treatment, followed by an improved disease score at day 12 | about 60%
